Legend:
S. pneumoniae D39V [1] = test: Bliss interaction score (quartile over a dose matrix) (fitness difference); higher = more antagonism (negative = synergy)
How it was run: (§1)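 Quartiles of the Bliss score were taken over technical, biological and donor/recipient replicates. That score is observed fitness minus the product of the single-drug fitness values, which were inferred from combination data. Fitness itself is OD595 at entry into stationary phase divided by the plate's robust no-drug mean, with a cap at 1.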

S. aureus DSM 20231 = test: as above
How it was run: as §1

S. aureus Newman [2] = test: as above
How it was run: as §1

B. subtilis 168 [3] = test: as above
How it was run: as §1

S. pneumoniae D39V [4] = test: fitness (endpoint OD595 vs no drug) (fraction); higher = more growth
How it was run: (§2)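 Background-subtracted growth curves were the basis for fitness, taken as the optical density at entry into stationary phase over the robust mean of no-drug control wells. A cap of 1 was applied. The curves came from OD595 readings every 30 min for 14 h at 37 °C, in 384-well plates seeded at OD595 0.01 with 30 µl, or 55 µl for S. pneumoniae.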

S. aureus Newman [5] = test: as above
How it was run: as §2

B. subtilis 168 [6] = test: as above
How it was run: as §2
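Wherever Bliss interaction score (quartile over a dose matrix) is given: first quartile when negative (synergy) and third quartile when positive (antagonism).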

## CC1(C)S[C@@H]2[C@H](NC(=O)Cc3ccccc3)C(=O)N2[C@H]1C(=O)O [PenicillinG] + CN[C@@H]1[C@H](O[C@H]2[C@H](O[C@H]3[C@H](O)[C@@H](O)[C@H](N=C(N)N)[C@@H](O)[C@@H]3N=C(N)N)O[C@@H](C)[C@]2(O)C=O)O[C@@H](CO)[C@H](O)[C@H]1O [Streptomycin]
S. pneumoniae D39V [1]
  Bliss interaction score: -0.119
S. aureus DSM 20231
  Bliss interaction score: -0.0333
S. aureus Newman [2]
  Bliss interaction score: -0.0403
B. subtilis 168 [3]
  Bliss interaction score: 0.0319

## CC(=O)Oc1ccccc1C(=O)O [Acetylsalicylicacid] + CC[C@H]1OC(=O)[C@H](C)[C@@H](O[C@H]2C[C@@](C)(OC)[C@@H](O)[C@H](C)O2)[C@H](C)[C@@H](O[C@@H]2O[C@H](C)C[C@H](N(C)C)[C@H]2O)[C@](C)(OC)C[C@@H](C)C(=O)[C@H](C)[C@@H](O)[C@]1(C)O [Clarithromycin]
S. pneumoniae D39V [1]
  Bliss interaction score: 0.0695
S. aureus DSM 20231
  Bliss interaction score: 0.109
S. aureus Newman [2]
  Bliss interaction score: 0.151
B. subtilis 168 [3]
  Bliss interaction score: 0.322

## CN(C)[C@@H]1C(O)=C(C(N)=O)C(=O)[C@@]2(O)C(O)=C3C(=O)c4c(O)ccc(Cl)c4[C@@](C)(O)[C@H]3C[C@@H]12 [Clortetracycline] + O=C1CN(/N=C/c2ccc([N+](=O)[O-])o2)C(=O)N1 [Nitrofurantoin]
S. pneumoniae D39V [1]
  Bliss interaction score: -0.0355
S. aureus DSM 20231
  Bliss interaction score: 0.016
S. aureus Newman [2]
  Bliss interaction score: -0.0647
B. subtilis 168 [3]
  Bliss interaction score: -0.158

## CO/N=C(\C(=O)N[C@@H]1C(=O)N2C(C(=O)O)=C(COC(N)=O)CS[C@H]12)c1ccco1 [Cefuroxime] + CC[C@H]1OC(=O)[C@H](C)[C@@H](O[C@H]2C[C@@](C)(OC)[C@@H](O)[C@H](C)O2)[C@H](C)[C@@H](O[C@@H]2O[C@H](C)C[C@H](N(C)C)[C@H]2O)[C@](C)(O)C[C@@H](C)C(=O)[C@H](C)[C@@H](O)[C@]1(C)O [Erythromycin]
S. pneumoniae D39V [1]
  Bliss interaction score: 0.0365
S. aureus DSM 20231
  Bliss interaction score: -0.255
S. aureus Newman [2]
  Bliss interaction score: 0.0555
B. subtilis 168 [3]
  Bliss interaction score: -0.0464

## Cc1ncc([N+](=O)[O-])n1CCO [Metronidazole] + CO[C@@]12[C@H](COC(N)=O)C3=C(C(=O)C(C)=C(N)C3=O)N1C[C@@H]1N[C@@H]12 [MitomycinC]
S. pneumoniae D39V [1]
  Bliss interaction score: 0.0827
S. aureus DSM 20231
  Bliss interaction score: 0.0443
S. aureus Newman [2]
  Bliss interaction score: 0.0511
B. subtilis 168 [3]
  Bliss interaction score: 0.132

## O=C(O)c1cn(C2CC2)c2cc(N3CCNCC3)c(F)cc2c1=O [Ciprofloxacin] + Cc1onc(-c2ccccc2)c1C(=O)N[C@@H]1C(=O)N2[C@@H]1SC(C)(C)[C@@H]2C(=O)O [Oxacillin]
S. pneumoniae D39V [4]; first compound 0.125 µg/mL, partner 0.005 µg/mL
  fitness: 0.987
S. pneumoniae D39V [4]; first compound 0.125 µg/mL, partner 0.01 µg/mL
  fitness: 0.969
S. pneumoniae D39V [4]; first compound 0.125 µg/mL, partner 0.02 µg/mL
  fitness: 0.915
S. pneumoniae D39V [4]; first compound 0.125 µg/mL, partner 0.04 µg/mL
  fitness: 0.535
S. pneumoniae D39V [4]; first compound 0.25 µg/mL, partner 0.005 µg/mL, one replicate
  fitness: 0.989
S. pneumoniae D39V [4]; first compound 0.25 µg/mL, partner 0.01 µg/mL
  fitness: 0.934
S. pneumoniae D39V [4]; first compound 0.25 µg/mL, partner 0.02 µg/mL
  fitness: 0.844
S. pneumoniae D39V [4]; first compound 0.25 µg/mL, partner 0.04 µg/mL
  fitness: 0.424
S. pneumoniae D39V [4]; first compound 0.5 µg/mL, partner 0.005 µg/mL
  fitness: 0.815
S. pneumoniae D39V [4]; first compound 0.5 µg/mL, partner 0.04 µg/mL
  fitness: 0.354
S. aureus Newman [5]; first compound 0.0375 µg/mL, partner 0.0156 µg/mL
  fitness: 0.622
S. aureus Newman [5]; first compound 0.0375 µg/mL, partner 0.0312 µg/mL
  fitness: 0.612
S. aureus Newman [5]; first compound 0.0375 µg/mL, partner 0.0625 µg/mL
  fitness: 0.573
S. aureus Newman [5]; first compound 0.075 µg/mL, partner 0.0156 µg/mL
  fitness: 0.635
S. aureus Newman [5]; first compound 0.075 µg/mL, partner 0.0312 µg/mL
  fitness: 0.618
S. aureus Newman [5]; first compound 0.075 µg/mL, partner 0.0625 µg/mL
  fitness: 0.494
S. aureus Newman [5]; first compound 0.15 µg/mL, partner 0.0156 µg/mL
  fitness: 0.0645
S. aureus Newman [5]; first compound 0.15 µg/mL, partner 0.0312 µg/mL
  fitness: 0.0732
S. aureus Newman [5]; first compound 0.15 µg/mL, partner 0.0625 µg/mL
  fitness: 0.0443
B. subtilis 168 [6]; first compound 0.0098 µg/mL, partner 0.002 µg/mL
  fitness: 0.894
B. subtilis 168 [6]; first compound 0.0098 µg/mL, partner 0.004 µg/mL
  fitness: 0.866
B. subtilis 168 [6]; first compound 0.0098 µg/mL, partner 0.0078 µg/mL, one replicate
  fitness: 0.976
B. subtilis 168 [6]; first compound 0.0098 µg/mL, partner 0.008 µg/mL
  fitness: 0.863
B. subtilis 168 [6]; first compound 0.0098 µg/mL, partner 0.0155 µg/mL, one replicate
  fitness: 0.905
B. subtilis 168 [6]; first compound 0.0098 µg/mL, partner 0.031 µg/mL, one replicate
  fitness: 0.965
B. subtilis 168 [6]; first compound 0.0098 µg/mL, partner 0.075 µg/mL, one replicate
  fitness: 0.375
B. subtilis 168 [6]; first compound 0.0195 µg/mL, partner 0.002 µg/mL
  fitness: 0.748
B. subtilis 168 [6]; first compound 0.0195 µg/mL, partner 0.004 µg/mL
  fitness: 0.693
B. subtilis 168 [6]; first compound 0.0195 µg/mL, partner 0.0078 µg/mL, one replicate
  fitness: 0.814
B. subtilis 168 [6]; first compound 0.0195 µg/mL, partner 0.008 µg/mL
  fitness: 0.61
B. subtilis 168 [6]; first compound 0.0195 µg/mL, partner 0.0155 µg/mL, one replicate
  fitness: 0.779
B. subtilis 168 [6]; first compound 0.0195 µg/mL, partner 0.031 µg/mL, one replicate
  fitness: 0.729
B. subtilis 168 [6]; first compound 0.0195 µg/mL, partner 0.075 µg/mL, one replicate
  fitness: 0.0252
B. subtilis 168 [6]; first compound 0.0195 µg/mL, partner 0.15 µg/mL, one replicate
  fitness: 0.0469
B. subtilis 168 [6]; first compound 0.0195 µg/mL, partner 0.3 µg/mL, one replicate
  fitness: 0.0517
B. subtilis 168 [6]; first compound 0.039 µg/mL, partner 0.002 µg/mL
  fitness: 0.0478
B. subtilis 168 [6]; first compound 0.039 µg/mL, partner 0.004 µg/mL
  fitness: 0.0457
B. subtilis 168 [6]; first compound 0.039 µg/mL, partner 0.0078 µg/mL, one replicate
  fitness: 0.136
B. subtilis 168 [6]; first compound 0.039 µg/mL, partner 0.008 µg/mL
  fitness: 0.054
B. subtilis 168 [6]; first compound 0.039 µg/mL, partner 0.0155 µg/mL, one replicate
  fitness: 0.191
B. subtilis 168 [6]; first compound 0.039 µg/mL, partner 0.031 µg/mL, one replicate
  fitness: 0.0978
B. subtilis 168 [6]; first compound 0.039 µg/mL, partner 0.075 µg/mL, one replicate
  fitness: 0.0437
B. subtilis 168 [6]; first compound 0.039 µg/mL, partner 0.15 µg/mL, one replicate
  fitness: 0.0478
B. subtilis 168 [6]; first compound 0.039 µg/mL, partner 0.3 µg/mL, one replicate
  fitness: 0.0488
S. aureus DSM 20231
  Bliss interaction score: 0.0341
S. aureus Newman [2]
  Bliss interaction score: 0.0816
B. subtilis 168 [3]
  Bliss interaction score: -0.0871

## CO/N=C(\C(=O)N[C@@H]1C(=O)N2C(C(=O)O)=C(COC(N)=O)CS[C@H]12)c1ccco1 [Cefuroxime] + O=C(O)[C@H]1/C(=C/CO)O[C@@H]2CC(=O)N21 [Clavulanic]
S. pneumoniae D39V [1]
  Bliss interaction score: -0.0363
B. subtilis 168 [3]
  Bliss interaction score: -0.0417

## CC(=O)Oc1cccc2c1C(=O)c1c(OC(C)=O)cc(C(=O)O)cc1C2=O [Diacerein] + CN(C)C(=O)C(CCN1CCC(O)(c2ccc(Cl)cc2)CC1)(c1ccccc1)c1ccccc1 [Loperamide]
S. aureus DSM 20231
  Bliss interaction score: -0.474

## CN(C)[C@@H]1C(O)=C(C(N)=O)C(=O)[C@@]2(O)C(O)=C3C(=O)c4c(O)ccc(Cl)c4[C@@](C)(O)[C@H]3C[C@@H]12 [Clortetracycline] + O=C(O)c1cc(-c2ccc(F)cc2F)ccc1O [Diflunisal]
S. aureus DSM 20231
  Bliss interaction score: 0.232

## O=C(O)c1cn(C2CC2)c2cc(N3CCNCC3)c(F)cc2c1=O [Ciprofloxacin] + COc1cc2ncnc(Nc3ccc(F)c(Cl)c3)c2cc1OCCCN1CCOCC1 [Gefitinib]
S. aureus DSM 20231
  Bliss interaction score: -0.336
